Measurements: patent publication US20110257087A1, “Protein Hydrolysate Compositions Having Enhanced CCK Releasing Activity” (SOLAE, LLC, priority 2008, published 2011)

Test system: STC-1 cells
Test: CCK release by STC-1 cells (competitive enzyme assay of the cell-conditioned medium)
Assay type: cell-based, mouse
Settings: positive control, 100 nM PMA in 2 mg/ml BSA, 4 hour
Experimental: The protein hydrolysates were added to the media of STC-1 cells at a protein concentration of approximately 2 mg/mL, and the enzyme controls were added at equivalent dilutions of the control reaction mixture (which included the enzyme(s) in the absence of protein substrate). Plotted is the % CCK released into the media of STC-1 cells stimulated by the different protein hydrolysates generated by the pepsin or pepsin and pancreatin enzymes, compared to the control 100 nM PMA (which was set as 100%). Cell culture media alone and 2 mg/mL bovine serum albumin (BSA) were used as negative background controls. The PMA control consisted of 100 nM PMA in cell culture media containing 2 mg/ml BSA. % CCK released into the cell culture media was calculated as follows: […]
It is known that protein, in general, stimulates the release of CCK by enteroendocrine cells in the intestinal track of animals, including humans (Liddle, R. A., et al., (1986) Proteins But Not Amino Acids, Carbohydrates, or Fats Stimulate Cholecystokinin Secretion in the Rat. Am. J. Physiol. 251 (Gastrointest. Liver Physiol. 14): G243-G248). […] Degree of hydrolysis was determined by the reaction of primary amine groups with o-phthalaldehyde (OPA) vs. total amount of primary amine present in sample after acid hydrolysis (110° C. for 24 hours) (known as, the “OPA method”). […]

CCCCCCCCCCCCCC(=O)O[C@@H]1[C@@H](C)[C@@]2(O)[C@@H](C=C(CO)C[C@]3(O)C(=O)C(C)=C[C@@H]23)[C@@H]2C(C)(C)[C@]12OC(C)=O [PMA, phorbol 12-myristate-13-acetate]
CCK Release (ng/ml) mean ± sem: 0.171 ± 0.003 ng/mL
